In ChEMBL document CHEMBL1155103, “Synthesis and SAR of novel, potent and orally bioavailable benzimidazole inhibitors of poly(ADP-ribose) polymerase (PARP) with a quaternary methylene-amino substituent” (Bioorg Med Chem Lett, 2008):
Calls of active or inactive are those of the source. No cut-off for these calls is given here.

Molecular target: T1, Poly [ADP-ribose] polymerase 1 (Homo sapiens, UniProt P09874)
Assay: Inhibition of PARP1
Details: not given

T1 sequence (P09874 whole entry): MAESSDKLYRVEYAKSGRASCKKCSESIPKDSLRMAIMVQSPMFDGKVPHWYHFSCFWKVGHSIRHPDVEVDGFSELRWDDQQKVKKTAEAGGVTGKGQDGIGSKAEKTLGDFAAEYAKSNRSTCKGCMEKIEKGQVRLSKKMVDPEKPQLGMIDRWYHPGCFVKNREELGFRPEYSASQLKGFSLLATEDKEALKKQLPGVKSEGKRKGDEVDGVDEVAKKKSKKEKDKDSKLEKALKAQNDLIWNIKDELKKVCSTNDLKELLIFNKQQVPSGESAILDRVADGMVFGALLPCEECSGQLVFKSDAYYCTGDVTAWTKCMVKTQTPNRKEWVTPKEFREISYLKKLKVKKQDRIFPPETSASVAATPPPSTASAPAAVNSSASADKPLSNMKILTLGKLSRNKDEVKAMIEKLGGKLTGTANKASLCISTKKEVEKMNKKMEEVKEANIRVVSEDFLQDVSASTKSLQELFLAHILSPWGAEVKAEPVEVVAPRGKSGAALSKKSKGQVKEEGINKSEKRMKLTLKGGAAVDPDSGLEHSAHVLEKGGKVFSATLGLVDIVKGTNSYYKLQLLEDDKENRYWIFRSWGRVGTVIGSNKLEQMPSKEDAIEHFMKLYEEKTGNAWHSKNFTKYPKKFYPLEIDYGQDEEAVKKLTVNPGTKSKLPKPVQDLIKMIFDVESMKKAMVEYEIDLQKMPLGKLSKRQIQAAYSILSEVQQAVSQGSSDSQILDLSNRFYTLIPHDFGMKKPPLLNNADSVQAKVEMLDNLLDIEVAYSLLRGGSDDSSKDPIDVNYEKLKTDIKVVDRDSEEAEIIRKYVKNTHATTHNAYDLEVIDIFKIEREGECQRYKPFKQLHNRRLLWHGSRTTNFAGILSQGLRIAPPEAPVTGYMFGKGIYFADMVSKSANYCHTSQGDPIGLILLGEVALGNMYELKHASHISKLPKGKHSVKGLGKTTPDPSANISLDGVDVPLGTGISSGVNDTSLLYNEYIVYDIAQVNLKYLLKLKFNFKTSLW

| Compound | Ki [nM] |
| --- | --- |
| CC(CCNC1CCCC1)c1nc2c(C(N)=O)cccc2[nH]1 (stereo not drawn) | 45 |
| CCN(CC)C(C)c1nc2c(C(N)=O)cccc2[nH]1 (stereo not drawn) | 61 |
| CC(C)NC(C)c1nc2c(C(N)=O)cccc2[nH]1 (stereo not drawn) | 12 |
| CC(C)NC(C)(C)c1nc2c(C(N)=O)cccc2[nH]1 | 7 |
| CCCNC(C)c1nc2c(C(N)=O)cccc2[nH]1 (stereo not drawn) | 41 |
| CC(C)(c1nc2cccc(C(N)=O)c2[nH]1)N1CCCCC1 | 15 |
| CN(C)C(C)(C)c1nc2cccc(C(N)=O)c2[nH]1 | 9 |
| NC(=O)c1cccc2[nH]c(C3(N)CCCCC3)nc12 | 50 |
| CC(C)(NCCc1ccccc1)c1nc2c(C(N)=O)cccc2[nH]1 | 37 |
| CC(CCN)c1nc2c(C(N)=O)cccc2[nH]1 (stereo not drawn) | 32 |
| CN(C1CCC1)C(C)(C)c1nc2c(C(N)=O)cccc2[nH]1 | 19 |
| CCCNC(C)(C)c1nc2c(C(N)=O)cccc2[nH]1 | 10 |
| CN(CC1CCOC1)C(C)(C)c1nc2cccc(C(N)=O)c2[nH]1 (stereo not drawn) | 17 |
| CC(N)c1nc2c(C(N)=O)cccc2[nH]1 (stereo not drawn) | 50 |
| CC(NS(=O)(=O)N(C)C)c1nc2c(C(N)=O)cccc2[nH]1 (stereo not drawn) | 140 |
| NC(=O)c1cccc2[nH]c(C3(N)CCc4ccccc4C3)nc12 (stereo not drawn) | 18 |
| CC(NC1CCCCC1)c1nc2c(C(N)=O)cccc2[nH]1 (stereo not drawn) | 53 |
| NC(=O)c1cccc2[nH]c(C3(N)CCC3)nc12 | 25 |
| CC(NC1CCCC1)c1nc2c(C(N)=O)cccc2[nH]1 (stereo not drawn) | 33 |
| NC(=O)c1cccc2[nH]c(C3(N)CC3)nc12 | 25 |
| NC(=O)c1cccc2[nH]c(C3(N)Cc4ccccc4C3)nc12 | 58 |
| CCNC(=O)NC(C)(C)c1nc2c(C(N)=O)cccc2[nH]1 | 870 |
| CC(NCCc1ccccc1)c1nc2c(C(N)=O)cccc2[nH]1 (stereo not drawn) | 35 |
| CC(C)(N)c1nc2c(C(N)=O)cccc2[nH]1 | 19 |
| CC(C)(NCC1CC1)c1nc2c(C(N)=O)cccc2[nH]1 | 7 |
| CC(C)(NC1CCCC1)c1nc2c(C(N)=O)cccc2[nH]1 | 9 |
| CC(C)(c1nc2c(C(N)=O)cccc2[nH]1)N1CCCC1 | 3 |
| CC(NCC1CC1)c1nc2c(C(N)=O)cccc2[nH]1 (stereo not drawn) | 24 |
| CNC(C)(C)c1nc2cccc(C(N)=O)c2[nH]1 | 4 |

Molecular target: T1, Poly [ADP-ribose] polymerase 1
Assay: Inhibition of PARP1 in cell based assay
Details: not given

| Compound | EC50 [nM] |
| --- | --- |
| CC(C)NC(C)(C)c1nc2c(C(N)=O)cccc2[nH]1 | 2 |
| CC(C)(c1nc2cccc(C(N)=O)c2[nH]1)N1CCCCC1 | 3.1 |
| CN(C)C(C)(C)c1nc2cccc(C(N)=O)c2[nH]1 | 1.8 |
| CC(C)(NCCc1ccccc1)c1nc2c(C(N)=O)cccc2[nH]1 | 9 |
| CCCNC(C)(C)c1nc2c(C(N)=O)cccc2[nH]1 | 3 |
| CC(C)(NCC1CC1)c1nc2c(C(N)=O)cccc2[nH]1 | 2 |
| CC(C)(NC1CCCC1)c1nc2c(C(N)=O)cccc2[nH]1 | 4 |
| CC(C)(c1nc2c(C(N)=O)cccc2[nH]1)N1CCCC1 | 0.9 |
| CNC(C)(C)c1nc2cccc(C(N)=O)c2[nH]1 | 1.3 |

Tested on: not listed separately
Assay: Half life in mouse at 5 mg/kg, iv
Format: ADME, organism-based
Design: dose 5 mg/kg, route intravenous
Details: in vivo

| Compound | half-life [min] |
| --- | --- |
| CC(C)NC(C)(C)c1nc2c(C(N)=O)cccc2[nH]1 | 36 |
| CC(C)(NCC1CC1)c1nc2c(C(N)=O)cccc2[nH]1 | 48 |
| CC(C)(c1nc2c(C(N)=O)cccc2[nH]1)N1CCCC1 | 24 |
| CNC(C)(C)c1nc2cccc(C(N)=O)c2[nH]1 | 36 |

Tested on: not listed separately
Assay: Volume of distribution in mouse at 5 mg/kg, iv and 10 mg/kg, po
Format: ADME, organism-based
Details: in vivo

| Compound | Vd [L/kg] |
| --- | --- |
| CC(C)NC(C)(C)c1nc2c(C(N)=O)cccc2[nH]1 | 2.1 |
| CC(C)(NCC1CC1)c1nc2c(C(N)=O)cccc2[nH]1 | 13.3 |
| CC(C)(c1nc2c(C(N)=O)cccc2[nH]1)N1CCCC1 | 1.8 |
| CNC(C)(C)c1nc2cccc(C(N)=O)c2[nH]1 | 3.5 |

Tested on: not listed separately
Assay: Clearance in mouse at 5 mg/kg, iv and 10 mg/kg, po
Format: ADME, organism-based
Details: in vivo

| Compound | clearance [mL/min/kg] |
| --- | --- |
| CC(C)NC(C)(C)c1nc2c(C(N)=O)cccc2[nH]1 | 66.7 |
| CC(C)(NCC1CC1)c1nc2c(C(N)=O)cccc2[nH]1 | 192 |
| CC(C)(c1nc2c(C(N)=O)cccc2[nH]1)N1CCCC1 | 50 |
| CNC(C)(C)c1nc2cccc(C(N)=O)c2[nH]1 | 70 |

Tested on: not listed separately
Assay: Oral bioavailability in mouse at 10 mg/kg
Format: ADME, organism-based
Details: in vivo

| Compound | bioavailability [%] |
| --- | --- |
| CC(C)NC(C)(C)c1nc2c(C(N)=O)cccc2[nH]1 | 82 |
| CC(C)(NCC1CC1)c1nc2c(C(N)=O)cccc2[nH]1 | 100 |
| CC(C)(c1nc2c(C(N)=O)cccc2[nH]1)N1CCCC1 | 52 |
| CNC(C)(C)c1nc2cccc(C(N)=O)c2[nH]1 | 85 |

Tested on: not listed separately
Assay: AUC in mouse at 10 mg/kg, po
Format: ADME, organism-based
Design: dose 10 mg/kg, route oral
Details: plasma

| Compound | AUC [µM·h] |
| --- | --- |
| CC(C)NC(C)(C)c1nc2c(C(N)=O)cccc2[nH]1 | 5.78 |
| CC(C)(NCC1CC1)c1nc2c(C(N)=O)cccc2[nH]1 | 3.38 |
| CC(C)(c1nc2c(C(N)=O)cccc2[nH]1)N1CCCC1 | 6.33 |
| CNC(C)(C)c1nc2cccc(C(N)=O)c2[nH]1 | 8.64 |

Tested on: not listed separately
Assay: Half life in mouse at 3 mg/kg, iv and 10 mg/kg, po
Format: ADME, organism-based
Details: in vivo

| Compound | half-life [min] |
| --- | --- |
| CC(C)NC(C)(C)c1nc2c(C(N)=O)cccc2[nH]1 | 36 |

Tested on: not listed separately
Assay: Volume of distribution in mouse at 3 mg/kg, iv and 10 mg/kg, po
Format: ADME, organism-based
Details: in vivo

| Compound | Vd [L/kg] |
| --- | --- |
| CC(C)NC(C)(C)c1nc2c(C(N)=O)cccc2[nH]1 | 2.1 |

Tested on: not listed separately
Assay: Clearance in mouse at 3 mg/kg, iv and 10 mg/kg, po
Format: ADME, organism-based
Details: in vivo

| Compound | clearance [mL/min/kg] |
| --- | --- |
| CC(C)NC(C)(C)c1nc2c(C(N)=O)cccc2[nH]1 | 66.7 |

Tested on: not listed separately
Assay: Half life in rat at 5 mg/kg, iv and 5 mg/kg, po
Format: ADME, organism-based
Details: in vivo

| Compound | half-life [min] |
| --- | --- |
| CC(C)NC(C)(C)c1nc2c(C(N)=O)cccc2[nH]1 | 60 |

Tested on: not listed separately
Assay: Volume of distribution in rat at 5 mg/kg, iv and 5 mg/kg, po
Format: ADME, organism-based
Details: in vivo

| Compound | Vd [L/kg] |
| --- | --- |
| CC(C)NC(C)(C)c1nc2c(C(N)=O)cccc2[nH]1 | 3.7 |

Tested on: not listed separately
Assay: Clearance in rat at 5 mg/kg, iv and 5 mg/kg, po
Format: ADME, organism-based
Details: in vivo

| Compound | clearance [mL/min/kg] |
| --- | --- |
| CC(C)NC(C)(C)c1nc2c(C(N)=O)cccc2[nH]1 | 85 |

Tested on: not listed separately
Assay: Oral bioavailability in rat at 5 mg/kg
Format: ADME, organism-based
Details: in vivo

| Compound | bioavailability [%] |
| --- | --- |
| CC(C)NC(C)(C)c1nc2c(C(N)=O)cccc2[nH]1 | 26 |

Tested on: not listed separately
Assay: AUC in rat at 5 mg/kg, po
Format: ADME, organism-based
Design: dose 5 mg/kg, route oral
Details: plasma

| Compound | AUC [µM·h] |
| --- | --- |
| CC(C)NC(C)(C)c1nc2c(C(N)=O)cccc2[nH]1 | 0.74 |

Tested on: not listed separately
Assay: Half life in dog at 2.5 mg/kg, iv and 2.5 mg/kg, po
Format: ADME, organism-based, Canis lupus familiaris
Details: in vivo

| Compound | half-life [min] |
| --- | --- |
| CC(C)NC(C)(C)c1nc2c(C(N)=O)cccc2[nH]1 | 168 |

Tested on: not listed separately
Assay: Volume of distribution in dog at 2.5 mg/kg, iv and 2.5 mg/kg, po
Format: ADME, organism-based, Canis lupus familiaris
Details: in vivo

| Compound | Vd [L/kg] |
| --- | --- |
| CC(C)NC(C)(C)c1nc2c(C(N)=O)cccc2[nH]1 | 2.9 |

Tested on: not listed separately
Assay: Clearance in dog at 2.5 mg/kg, iv and 2.5 mg/kg, po
Format: ADME, organism-based, Canis lupus familiaris
Details: in vivo

| Compound | clearance [mL/min/kg] |
| --- | --- |
| CC(C)NC(C)(C)c1nc2c(C(N)=O)cccc2[nH]1 | 14.2 |

Tested on: not listed separately
Assay: Oral bioavailability in dog at 2.5 mg/kg
Format: ADME, organism-based, Canis lupus familiaris
Details: in vivo

| Compound | bioavailability [%] |
| --- | --- |
| CC(C)NC(C)(C)c1nc2c(C(N)=O)cccc2[nH]1 | 70.5 |

Tested on: not listed separately
Assay: AUC in dog at 2.5 mg/kg, po
Format: ADME, organism-based, Canis lupus familiaris
Design: dose 2.5 mg/kg, route oral
Details: plasma

| Compound | AUC [µM·h] |
| --- | --- |
| CC(C)NC(C)(C)c1nc2c(C(N)=O)cccc2[nH]1 | 6.07 |

Tested on: not listed separately
Assay: Half life in monkey at 2.5 mg/kg, iv and 2.5 mg/kg, po
Format: ADME, organism-based, Macaca mulatta
Details: rhesus monkey, in vivo

| Compound | half-life [min] |
| --- | --- |
| CC(C)NC(C)(C)c1nc2c(C(N)=O)cccc2[nH]1 | 36 |

Tested on: not listed separately
Assay: Volume of distribution in monkey at 2.5 mg/kg, iv and 2.5 mg/kg, po
Format: ADME, organism-based, Macaca mulatta
Details: rhesus monkey, in vivo

| Compound | Vd [L/kg] |
| --- | --- |
| CC(C)NC(C)(C)c1nc2c(C(N)=O)cccc2[nH]1 | 1.1 |

Tested on: not listed separately
Assay: Clearance in monkey at 2.5 mg/kg, iv and 2.5 mg/kg, po
Format: ADME, organism-based, Macaca mulatta
Details: rhesus monkey, in vivo

| Compound | clearance [mL/min/kg] |
| --- | --- |
| CC(C)NC(C)(C)c1nc2c(C(N)=O)cccc2[nH]1 | 23.3 |

Tested on: not listed separately
Assay: Oral bioavailability in monkey at 2.5 mg/kg
Format: ADME, organism-based, Macaca mulatta
Details: rhesus monkey, in vivo

| Compound | bioavailability [%] |
| --- | --- |
| CC(C)NC(C)(C)c1nc2c(C(N)=O)cccc2[nH]1 | 12.6 |

Tested on: not listed separately
Assay: AUC in monkey at 2.5 mg/kg, po
Format: ADME, organism-based, Macaca mulatta
Design: dose 2.5 mg/kg, route oral
Details: rhesus monkey, plasma

| Compound | AUC [µM·h] |
| --- | --- |
| CC(C)NC(C)(C)c1nc2c(C(N)=O)cccc2[nH]1 | 0.65 |

Tested on: B16-F10
Assay: Potentiation of temozolomide-induced cytotoxicity in mouse B16F10 cells […] C57BL/6 mouse melanoma model assessed as reduction in tumor volume at 30 mg/kg, po
Format: functional, organism-based
Design: dose 30 mg/kg
Details: not given

| Compound | Activity |
| --- | --- |
| CC(C)NC(C)(C)c1nc2c(C(N)=O)cccc2[nH]1 | Active |
| CC(C)(c1nc2c(C(N)=O)cccc2[nH]1)N1CCCC1 | Active |
